ChEMBL document CHEMBL4177643, “Trisubstituted purine inhibitors of PDGFRα and their antileukemic activity in the human eosinophilic cell line EOL-1” (Bioorg Med Chem, 2017)

Assays:
[1] = test system: EOL1; experiment: Cell cycle arrest in human EOL-1 cells assessed as accumulation at sub-G1 phase at 1 uM after 24 hrs by propidium iodide staining-based flow cytometry (reference value: 20%); assay type: functional
[2] = test system: HCC827; experiment: Cytotoxicity against human HCC827 cells assessed as growth inhibition after 72 hrs by calcein-AM dye based fluorescence assay; assay type: functional; settings: HCC827, 72 h
[3] = test system: EOL1; experiment: Cytotoxicity against human EOL-1 cells assessed as growth inhibition after 72 hrs by calcein-AM dye based fluorescence assay; assay type: functional; settings: EOL1, 72 h
[4] = test system: EOL1; experiment: Cell cycle arrest in human EOL-1 cells assessed as accumulation at sub-G1 phase at 0.008 uM after 24 hrs by propidium iodide staining-based flow cytometry (reference value: 20%); assay type: functional
[5] = test system: K562; experiment: Cytotoxicity against human K562 cells assessed as growth inhibition after 72 hrs by calcein-AM dye based fluorescence assay; assay type: functional; settings: K562, 72 h
[6] = test system: BT-474; experiment: Cytotoxicity against human BT474 cells assessed as growth inhibition after 72 hrs by calcein-AM dye based fluorescence assay; assay type: functional; settings: BT-474, 72 h
[7] = test system: EOL1; experiment: Cell cycle arrest in human EOL-1 cells assessed as accumulation at sub-G1 phase at 0.2 uM after 24 hrs by propidium iodide staining-based flow cytometry (reference value: 20%); assay type: functional
[8] = test system: EOL1; experiment: Cell cycle arrest in human EOL-1 cells assessed as accumulation at S phase at 0.2 uM after 24 hrs by propidium iodide staining-based flow cytometry (reference value: 20.7%); assay type: functional
[9] = test system: EOL1; experiment: Cell cycle arrest in human EOL-1 cells assessed as accumulation at G2/M phase at 0.2 uM after 24 hrs by propidium iodide staining-based flow cytometry (reference value: 18.4%); assay type: functional
[10] = test system: K562; experiment: Cell cycle arrest in human K562 cells assessed as G1/G2-M ratio at GI50 concentration after 24 hrs by propidium iodide staining-based flow cytometry relative to control; assay type: functional
[11] = test system: EOL1; experiment: Cell cycle arrest in human EOL-1 cells assessed as accumulation at G1 phase at 0.2 uM after 24 hrs by propidium iodide staining-based flow cytometry (reference value: 60.9%); assay type: functional
[12] = test system: EOL1; experiment: Cell cycle arrest in human EOL-1 cells assessed as accumulation at G1 phase at 1 uM after 24 hrs by propidium iodide staining-based flow cytometry (reference value: 60.9%); assay type: functional
[13] = test system: EOL1; experiment: Cell cycle arrest in human EOL-1 cells assessed as accumulation at G2/M phase at 0.04 uM after 24 hrs by propidium iodide staining-based flow cytometry (reference value: 18.4%); assay type: functional
[14] = test system: EOL1; experiment: Cell cycle arrest in human EOL-1 cells assessed as accumulation at G1 phase at 0.008 uM after 24 hrs by propidium iodide staining-based flow cytometry (reference value: 60.9%); assay type: functional
[15] = test system: EOL1; experiment: Cell cycle arrest in human EOL-1 cells assessed as accumulation at G2/M phase at 0.008 uM after 24 hrs by propidium iodide staining-based flow cytometry (reference value: 18.4%); assay type: functional
[16] = target: Platelet-derived growth factor receptor alpha (Homo sapiens, UniProt P16234); experiment: Inhibition of recombinant human N-terminal GST-His6 tagged PDGFRalpha (Q551 to L1089 residues) expressed in Sf9 insect cells using poly(Ala,Glu,Lys,Tyr)6:2:5:1 hydrobromide as substrate in presence of [gamma-33P]ATP
[17] = test system: EOL1; experiment: Cell cycle arrest in human EOL-1 cells assessed as accumulation at G2/M phase at 1 uM after 24 hrs by propidium iodide staining-based flow cytometry (reference value: 18.4%); assay type: functional
[18] = test system: EOL1; experiment: Cell cycle arrest in human EOL-1 cells assessed as accumulation at sub-G1 phase at 0.04 uM after 24 hrs by propidium iodide staining-based flow cytometry (reference value: 20%); assay type: functional
[19] = target: Cyclin-dependent kinase 2/cyclin E1 (Homo sapiens, UniProt P24941); experiment: Inhibition of CDK2/cyclin E (unknown origin) expressed in baculovirus infected insect Sf9 cells using histone H1 as substrate in presence of [gamma-33P]ATP
[20] = test system: EOL1; experiment: Cell cycle arrest in human EOL-1 cells assessed as accumulation at S phase at 0.04 uM after 24 hrs by propidium iodide staining-based flow cytometry (reference value: 20.7%); assay type: functional
[21] = test system: EOL1; experiment: Cell cycle arrest in human EOL-1 cells assessed as accumulation at G1 phase at 0.04 uM after 24 hrs by propidium iodide staining-based flow cytometry (reference value: 60.9%); assay type: functional
[22] = test system: EOL1; experiment: Cell cycle arrest in human EOL-1 cells assessed as accumulation at S phase at 1 uM after 24 hrs by propidium iodide staining-based flow cytometry (reference value: 20.7%); assay type: functional
[23] = test system: EOL1; experiment: Cell cycle arrest in human EOL-1 cells assessed as G1/G2-M ratio at GI50 concentration after 24 hrs by propidium iodide staining-based flow cytometry relative to control; assay type: functional
[24] = test system: MCF7; experiment: Cytotoxicity against human MCF7 cells assessed as growth inhibition after 72 hrs by calcein-AM dye based fluorescence assay; assay type: functional; settings: MCF7, 72 h
[25] = test system: HCC827; experiment: Cell cycle arrest in human HCC827 cells assessed as G1/G2-M ratio at GI50 concentration after 24 hrs by propidium iodide staining-based flow cytometry relative to control; assay type: functional
[26] = test system: EOL1; experiment: Cell cycle arrest in human EOL-1 cells assessed as accumulation at S phase at 0.008 uM after 24 hrs by propidium iodide staining-based flow cytometry (reference value: 20.7%); assay type: functional

Platelet-derived growth factor receptor alpha, sequence (P16234 whole entry, the tested form may be a part): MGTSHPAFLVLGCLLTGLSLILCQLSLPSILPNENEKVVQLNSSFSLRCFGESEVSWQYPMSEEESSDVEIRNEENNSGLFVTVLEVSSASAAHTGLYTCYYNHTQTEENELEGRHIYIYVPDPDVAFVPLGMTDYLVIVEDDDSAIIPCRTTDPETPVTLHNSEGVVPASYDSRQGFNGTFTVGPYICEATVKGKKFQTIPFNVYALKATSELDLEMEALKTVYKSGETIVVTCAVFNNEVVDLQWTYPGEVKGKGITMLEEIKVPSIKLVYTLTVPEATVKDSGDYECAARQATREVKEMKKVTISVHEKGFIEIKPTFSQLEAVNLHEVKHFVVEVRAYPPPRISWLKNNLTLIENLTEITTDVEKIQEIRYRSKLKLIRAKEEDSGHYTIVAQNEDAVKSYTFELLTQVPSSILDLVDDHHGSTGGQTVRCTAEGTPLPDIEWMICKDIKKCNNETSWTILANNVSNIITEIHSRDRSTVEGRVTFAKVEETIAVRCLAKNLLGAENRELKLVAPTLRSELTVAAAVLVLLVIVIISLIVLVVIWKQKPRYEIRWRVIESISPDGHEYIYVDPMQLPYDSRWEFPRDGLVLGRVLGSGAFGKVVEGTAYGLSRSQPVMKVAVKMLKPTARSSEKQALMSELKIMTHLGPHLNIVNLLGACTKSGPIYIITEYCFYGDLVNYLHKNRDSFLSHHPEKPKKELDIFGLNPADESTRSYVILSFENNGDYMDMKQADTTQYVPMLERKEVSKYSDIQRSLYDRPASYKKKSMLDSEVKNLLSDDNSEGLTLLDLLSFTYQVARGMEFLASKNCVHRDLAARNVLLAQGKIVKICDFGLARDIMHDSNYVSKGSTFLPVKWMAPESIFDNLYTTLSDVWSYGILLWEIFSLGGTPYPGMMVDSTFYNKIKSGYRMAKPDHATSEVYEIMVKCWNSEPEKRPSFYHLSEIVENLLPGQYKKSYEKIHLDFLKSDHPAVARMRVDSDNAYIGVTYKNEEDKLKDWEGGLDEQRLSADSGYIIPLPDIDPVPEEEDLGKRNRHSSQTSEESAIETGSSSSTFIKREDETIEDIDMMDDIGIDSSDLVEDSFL

CC(C)CCn1cnc2c(Nc3cccc(Cl)c3)nc(N[C@H]3CC[C@H](N)CC3)nc21
Activity [1]: 46.3% | GI50 [2]: 10300 nM | GI50 [3]: 60 nM | Activity [4]: 27.9% | GI50 [5]: 1500 nM | GI50 [6]: 3800 nM | Activity [7]: 49.8% | Activity [8]: 10.6% | Activity [9]: 3.1% | Ratio [10]: 1.1 | Activity [11]: 86.3% | Activity [12]: 79.9% | Activity [13]: 6.2% | Activity [14]: 77.1% | Activity [15]: 10.4% | IC50 [16]: 66 nM | Activity [17]: 5.6% | Activity [18]: 36.5% | IC50 [19]: 275 nM | Activity [20]: 7.7% | Activity [21]: 86.1% | Activity [22]: 14.5% | Ratio [23]: 6 | GI50 [24]: 2100 nM | Ratio [25]: 1.33 | Activity [26]: 12.5%
